In PubChem BioAssay AID1259407 (Chemical Carcinogenesis Research Information System (CCRIS), 2018):
Active and inactive are the calls of the source. The rule behind the calls is not given here.

Tested on: CCRIS mutagenicity, Ames/micronucleus/aberration tests
Experiment: CCRIS mutagenicity studies
[1] = Test System: AMES SALMONELLA TYPHIMURIUM, Strain/Indicator: TA98, Metabolic Activation: NONE, Method: STANDARD PLATE
[2] = Test System: AMES SALMONELLA TYPHIMURIUM, Strain/Indicator: TA98, Metabolic Activation: RAT, LIVER, S-9, AROCLOR 1254, Method: STANDARD PLATE
[3] = Test System: AMES SALMONELLA TYPHIMURIUM, Strain/Indicator: TA100, Metabolic Activation: NONE, Method: STANDARD PLATE
[4] = Test System: AMES SALMONELLA TYPHIMURIUM, Strain/Indicator: TA100, Metabolic Activation: RAT, LIVER, S-9, AROCLOR 1254, Method: STANDARD PLATE
[5] = Test System: AMES SALMONELLA TYPHIMURIUM, Strain/Indicator: TA1535, Metabolic Activation: NONE, Method: STANDARD PLATE
[6] = Test System: AMES SALMONELLA TYPHIMURIUM, Strain/Indicator: TA1535, Metabolic Activation: RAT, LIVER, S-9, AROCLOR 1254, Method: STANDARD PLATE
[7] = Test System: AMES SALMONELLA TYPHIMURIUM, Strain/Indicator: TA1537, Metabolic Activation: NONE, Method: STANDARD PLATE
[8] = Test System: AMES SALMONELLA TYPHIMURIUM, Strain/Indicator: TA1537, Metabolic Activation: RAT, LIVER, S-9, AROCLOR 1254, Method: STANDARD PLATE
[9] = Test System: AMES SALMONELLA TYPHIMURIUM, Strain/Indicator: TA98, Metabolic Activation: NONE, Method: PREINCUBATION
[10] = Test System: AMES SALMONELLA TYPHIMURIUM, Strain/Indicator: TA100, Metabolic Activation: NONE, Method: PREINCUBATION
[11] = Test System: AMES SALMONELLA TYPHIMURIUM, Strain/Indicator: TA104, Metabolic Activation: NONE, Method: STANDARD PLATE
[12] = Test System: AMES SALMONELLA TYPHIMURIUM, Strain/Indicator: TA1538, Metabolic Activation: NONE, Method: STANDARD PLATE
[13] = Test System: AMES SALMONELLA TYPHIMURIUM, Strain/Indicator: TA97, Metabolic Activation: NONE, Method: STANDARD PLATE

CC(=O)OCC1=CO[C@@H](OC(=O)CC(C)C)[C@H]2C1=C[C@H](OC(=O)CC(C)C)[C@]21CO1
mutagenic call [1]: inactive; negative
mutagenic call [2]: inactive; negative
mutagenic call [3]: inactive; negative
mutagenic call [4]: active; positive
mutagenic call [5]: inactive; negative
mutagenic call [6]: inactive; negative
mutagenic call [7]: inactive; negative
mutagenic call [8]: inactive; negative
mutagenic call (Test System: E. COLI, Strain/Indicator: WP2, Metabolic Activation: NONE, Method: STANDARD PLATE): inactive; negative
mutagenic call (Test System: E. COLI, Strain/Indicator: WP2, Metabolic Activation: RAT, LIVER, S-9, AROCLOR 1254, Method: STANDARD PLATE): inactive; negative
mutagenic call (Test System: E. COLI, Strain/Indicator: WP2 UVRA, Metabolic Activation: NONE, Method: STANDARD PLATE): active; positive
mutagenic call (Test System: E. COLI, Strain/Indicator: WP2 UVRA, Metabolic Activation: RAT, LIVER, S-9, AROCLOR 1254, Method: STANDARD PLATE): inactive; negative

COC(=O)c1oc([N+](=O)[O-])c(-c2ccccc2)c1-c1ccccc1
mutagenic call (Test System: AMES SALMONELLA TYPHIMURIUM, Strain/Indicator: TA98(1,8-DNP6), Metabolic Activation: NONE, Method: STANDARD PLATE): active; positive
mutagenic call (Test System: AMES SALMONELLA TYPHIMURIUM, Strain/Indicator: TA98(NR), Metabolic Activation: NONE, Method: STANDARD PLATE): inactive; negative
mutagenic call [9]: active; positive
mutagenic call [1]: active; positive
mutagenic call (Test System: AMES SALMONELLA TYPHIMURIUM, Strain/Indicator: TA100(NR), Metabolic Activation: NONE, Method: STANDARD PLATE): active; positive
mutagenic call [10]: active; positive
mutagenic call [3]: active; positive
mutagenic call [11]: active; positive

COc1cc(-c2cc(OC)cc(C(C)(C)C)c2O)c(O)c(C(C)(C)C)c1
mutagenic call (Test System: AMES SALMONELLA TYPHIMURIUM, Strain/Indicator: TA97, Metabolic Activation: NONE, Method: PREINCUBATION): inactive; negative
mutagenic call (Test System: AMES SALMONELLA TYPHIMURIUM, Strain/Indicator: TA97, Metabolic Activation: RAT, LIVER, S-9, PCB, Method: PREINCUBATION): inactive; negative
mutagenic call [9]: inactive; negative
mutagenic call (Test System: AMES SALMONELLA TYPHIMURIUM, Strain/Indicator: TA98, Metabolic Activation: RAT, LIVER, S-9, PCB, Method: PREINCUBATION): inactive; negative
mutagenic call [10]: inactive; negative
mutagenic call (Test System: AMES SALMONELLA TYPHIMURIUM, Strain/Indicator: TA100, Metabolic Activation: RAT, LIVER, S-9, PCB, Method: PREINCUBATION): inactive; negative
mutagenic call (Test System: AMES SALMONELLA TYPHIMURIUM, Strain/Indicator: TA102, Metabolic Activation: NONE, Method: PREINCUBATION): inactive; negative
mutagenic call (Test System: AMES SALMONELLA TYPHIMURIUM, Strain/Indicator: TA102, Metabolic Activation: RAT, LIVER, S-9, PCB, Method: PREINCUBATION): inactive; negative

COc1cc2c(c3ccc4ccccc4c13)CCC2=O
mutagenic call [4]: active; positive

CS(=O)(=O)c1ccc(Cl)cc1
mutagenic call [1]: inactive; negative
mutagenic call [2]: inactive; negative
mutagenic call [3]: inactive; negative
mutagenic call [4]: inactive; negative
mutagenic call [5]: inactive; negative
mutagenic call [6]: inactive; negative
mutagenic call [7]: inactive; negative
mutagenic call [8]: inactive; negative
mutagenic call [12]: inactive; negative
mutagenic call (Test System: AMES SALMONELLA TYPHIMURIUM, Strain/Indicator: TA1538, Metabolic Activation: RAT, LIVER, S-9, AROCLOR 1254, Method: STANDARD PLATE): inactive; negative

OC[C@H]1OC(n2cnc3c2ncn2ccnc32)C[C@@H]1O (some centres not stated)
mutagenic call [10]: inactive; negative

CC(C)CCC[C@@H](C)[C@H]1CC[C@H]2[C@@H]3C(=O)C=C4C[C@@H](O)CC[C@]4(C)[C@H]3CC[C@]12C
mutagenic call [13]: inactive; negative
mutagenic call [1]: inactive; negative
mutagenic call [3]: inactive; negative
mutagenic call (Test System: AMES SALMONELLA TYPHIMURIUM, Strain/Indicator: TA102, Metabolic Activation: NONE, Method: STANDARD PLATE): inactive; negative
mutagenic call [5]: inactive; negative

C[n+]1ccn(COCCC(C)(C)[N+](=O)[O-])c1/C=N/O
mutagenic call [13]: inactive; negative
mutagenic call (Test System: AMES SALMONELLA TYPHIMURIUM, Strain/Indicator: TA97, Metabolic Activation: S-9, Method: STANDARD PLATE): inactive; negative
mutagenic call [1]: inactive; negative
mutagenic call (Test System: AMES SALMONELLA TYPHIMURIUM, Strain/Indicator: TA98, Metabolic Activation: S-9, Method: STANDARD PLATE): inactive; negative
mutagenic call [3]: inactive; negative
mutagenic call (Test System: AMES SALMONELLA TYPHIMURIUM, Strain/Indicator: TA100, Metabolic Activation: S-9, Method: STANDARD PLATE): inactive; negative
mutagenic call [11]: inactive; negative
mutagenic call (Test System: AMES SALMONELLA TYPHIMURIUM, Strain/Indicator: TA104, Metabolic Activation: S-9, Method: STANDARD PLATE): inactive; negative
mutagenic call [5]: inactive; negative
mutagenic call (Test System: AMES SALMONELLA TYPHIMURIUM, Strain/Indicator: TA1535, Metabolic Activation: S-9, Method: STANDARD PLATE): inactive; negative
mutagenic call [7]: inactive; negative
mutagenic call (Test System: AMES SALMONELLA TYPHIMURIUM, Strain/Indicator: TA1537, Metabolic Activation: S-9, Method: STANDARD PLATE): inactive; negative
mutagenic call [12]: inactive; negative
mutagenic call (Test System: AMES SALMONELLA TYPHIMURIUM, Strain/Indicator: TA1538, Metabolic Activation: S-9, Method: STANDARD PLATE): inactive; negative

CCN=[N+](C)[O-]
mutagenic call (Test System: AMES SALMONELLA TYPHIMURIUM, Strain/Indicator: TA1535, Metabolic Activation: HAMSTER, LIVER, S-9, AROCLOR 1254, Method: PREINCUBATION): inactive; negative
mutagenic call (Test System: AMES SALMONELLA TYPHIMURIUM, Strain/Indicator: TA1535, Metabolic Activation: NONE, Method: PREINCUBATION): inactive; negative
mutagenic call (Test System: AMES SALMONELLA TYPHIMURIUM, Strain/Indicator: TA1535, Metabolic Activation: RAT, LIVER, S-9, AROCLOR 1254, Method: PREINCUBATION): inactive; negative

BrCc1ccc(Br)cc1
mutagenic call (Test System: AMES SALMONELLA TYPHIMURIUM, Strain/Indicator: TA97A, Metabolic Activation: NONE, Method: STANDARD PLATE): inactive; negative
mutagenic call (Test System: AMES SALMONELLA TYPHIMURIUM, Strain/Indicator: TA97A, Metabolic Activation: RAT LIVER S-9, PHENOBARBITAL, BETA-NAPHTHOFLAVONE, 3.5%, Method: STANDARD PLATE): inactive; negative
mutagenic call [1]: inactive; negative
mutagenic call (Test System: AMES SALMONELLA TYPHIMURIUM, Strain/Indicator: TA98, Metabolic Activation: RAT LIVER S-9, PHENOBARBITAL, BETA-NAPHTHOFLAVONE, 3.5%, Method: STANDARD PLATE): inactive; negative
mutagenic call [3]: inactive; negative
mutagenic call (Test System: AMES SALMONELLA TYPHIMURIUM, Strain/Indicator: TA100, Metabolic Activation: RAT LIVER S-9, PHENOBARBITAL, BETA-NAPHTHOFLAVONE, 3.5%, Method: STANDARD PLATE): inactive; negative
mutagenic call [5]: inactive; negative
mutagenic call (Test System: AMES SALMONELLA TYPHIMURIUM, Strain/Indicator: TA1535, Metabolic Activation: RAT LIVER S-9, PHENOBARBITAL, BETA-NAPHTHOFLAVONE, 3.5%, Method: STANDARD PLATE): inactive; negative
mutagenic call (Test System: ESCHERICHIA COLI, Strain/Indicator: WP2 UVR A, Metabolic Activation: NONE, Method: STANDARD PLATE): inactive; negative
mutagenic call (Test System: ESCHERICHIA COLI, Strain/Indicator: WP2 UVR A, Metabolic Activation: RAT LIVER S-9, PHENOBARBITAL, BETA-NAPHTHOFLAVONE, 3.5%, Method: STANDARD PLATE): inactive; negative
